Test results published in ChEMBL document CHEMBL1146807, “A new family of quinoline and quinoxaline analogues of combretastatins” (Bioorg Med Chem Lett, 2004).
Calls of active or inactive are those of the source.

Columns and labels:
P388 = assay: Cytotoxic activity against P-388 cell line; type: functional, cell-based; details: Mus musculus
HCT-116 = assay: Cytotoxic activity against H116 cell line; type: functional, cell-based; details: Homo sapiens
A549 = assay: Cytotoxic activity against A-549 cell line; type: functional, cell-based; details: Homo sapiens
HT-29 = assay: Cytotoxic activity against HT-29 cell line; type: functional, cell-based; details: Homo sapiens
SK-MEL-28 = assay: Cytotoxic activity against MEL-28 cell line; type: functional, cell-based; details: Homo sapiens
[1] = Compound tested for inhibition of tubulin polymerization at 60 uM; No inhibition; type: functional
[2] = Compound tested for inhibition of tubulin polymerization; type: functional

COc1cc(/C=C/c2ccc3nc(C)c(C)nc3c2)cc(OC)c1OC
> 15800 nM: IC50 (P388) | IC50 (HCT-116) | IC50 (A549) | IC50 (HT-29) | IC50 (SK-MEL-28)

COc1ccc(/C=C\c2cc(OC)c(OC)c(OC)c2)cc1O [COMBRETASTATIN A4]
3.16 nM: IC50 (HCT-116)

COc1cc(/C=C/c2ccc3cccnc3c2)cc(OC)c1OC
1580 nM: IC50 (P388) | IC50 (HCT-116) | IC50 (A549) | IC50 (HT-29) | IC50 (SK-MEL-28)

COc1cc(/C=C\c2ccnc3ccccc23)cc(OC)c1OC
15800 nM: IC50 (HT-29)
7940 nM: IC50 (P388) | IC50 (HCT-116) | IC50 (A549) | IC50 (SK-MEL-28)

COc1cc(/C=C\c2ccc3ncccc3c2)cc(OC)c1OC
31.6 nM: IC50 (P388) | IC50 (HCT-116) | IC50 (A549) | IC50 (HT-29) | IC50 (SK-MEL-28)

COc1cc(/C=C\c2ccc3nc(C)c(C)nc3c2)cc(OC)c1OC
inactive: inhibition [1]
> 15800 nM: IC50 (P388) | IC50 (HCT-116) | IC50 (A549) | IC50 (HT-29) | IC50 (SK-MEL-28)

COc1cc(/C=C\c2ccc3nccnc3c2)cc(OC)c1OC
inactive: inhibition [1]
7940 nM: IC50 (P388) | IC50 (HCT-116) | IC50 (A549) | IC50 (HT-29) | IC50 (SK-MEL-28)

COc1cc(/C=C\c2cnc3ccccc3c2)cc(OC)c1OC
398 nM: IC50 (P388) | IC50 (HCT-116) | IC50 (A549) | IC50 (HT-29) | IC50 (SK-MEL-28)

COc1cc(/C=C\c2ccc3cccnc3c2)cc(OC)c1OC
20000 nM: IC50 [2]
158 nM: IC50 (P388) | IC50 (HCT-116) | IC50 (A549) | IC50 (HT-29) | IC50 (SK-MEL-28)

COc1cc(/C=C/c2cnc3ccccc3c2)cc(OC)c1OC
> 3160 nM: IC50 (P388) | IC50 (HCT-116) | IC50 (A549) | IC50 (HT-29) | IC50 (SK-MEL-28)

COc1cc(/C=C\c2ccc3ccccc3c2)cc(OC)c1OC [NAPHTHYLCOMBRETASTATIN]
15.8 nM: IC50 (HCT-116)

COc1cc(/C=C/c2ccc3nccnc3c2)cc(OC)c1OC
> 15800 nM: IC50 (P388) | IC50 (HCT-116) | IC50 (A549) | IC50 (HT-29) | IC50 (SK-MEL-28)

COc1cc(/C=C\c2ccc3ccccc3n2)cc(OC)c1OC
316 nM: IC50 (P388) | IC50 (HCT-116) | IC50 (A549) | IC50 (HT-29) | IC50 (SK-MEL-28)

COc1cc(/C=C/c2ccc3ccccc3n2)cc(OC)c1OC
398 nM: IC50 (P388) | IC50 (HCT-116) | IC50 (A549) | IC50 (HT-29) | IC50 (SK-MEL-28)
